Assay results: patent US8546320B2, “Hsp9O-targeted anti-cancer chimeric peptide” (Kyoto University, priority 2008, dated 2013)
Where a SMILES comes first, the peptide text is derived from it.

What was measured:
[1] = test system: Caki-1; format: cell-based, human; settings: Caki-1; for Anti-cancer activity (% relative to wild-type peptide) / Decrease in cell survival rate (% relative to wild-type peptide): wild-type peptide = 100%
[2] = test system: cancer cells; experiment: Cell viability assay, summary statements on cancer cells; format: cell-based; settings: single mutation in TPR or Antp region of Antp-TPR
[3] = test system: U937; experiment: cells; format: cell-based, human; settings: for Anti-cancer activity (% relative to wild-type peptide) / Decrease in cell survival rate (% relative to wild-type peptide) / killing effect compared with the wild-type peptide: U937; for Anti-cancer activity (% relative to wild-type peptide) / Decrease in cell survival rate (% relative to wild-type peptide): wild-type peptide = 100%
Description: A total of 3×10^3 cells per well were inoculated onto a 96 well plate, and incubated in a medium containing 10% FBS with 100 μl of a peptide diluted stepwise at 37° C. for 48 to 72 hours. The survival rate of the cells was measured by using WST-8 solution (Cell Count Reagent SF; Nacalai Tesque, Inc.).

Row | Structure (SMILES) | Anti-cancer activity (% relative to wild-type peptide) [1] [%] | Decrease in cell survival rate (% relative to wild-type peptide) [1] [%] | effect compared with the wild-type protein (summary of mutations) [2] | Cell Survival Rate (%) [3] [%] | Anti-cancer activity (% relative to wild-type peptide) [3] [%] | Decrease in cell survival rate (% relative to wild-type peptide) [3] [%] | killing effect compared with the wild-type peptide [3] | killing effect compared with the wild-type peptide [1]
1 | CC[C@H](C)[C@H](NC(=O)[C@H](CCCCN)NC(=O)[C@@H](NC(=O)[C@H](CCC(N)=O)NC(=O)[C@@H](N)CCCNC(=N)N)[C@@H](C)CC)C(=O)N[C@@H](Cc1c[nH]c2ccccc12)C(=O)N[C@@H](Cc1ccccc1)C(=O)N[C@@H](CCC(N)=O)C(=O)N[C@@H](CC(N)=O)C(=O)N[C@@H](CCCNC(=N)N)C(=O)N[C@@H](CCCNC(=N)N)C(=O)N[C@@H](CCSC)C(=O)N[C@@H](CCCCN)C(=O)N[C@@H](Cc1c[nH]c2ccccc12)C(=O)N[C@@H](CCCCN)C(=O)N[C@@H](CCCCN)C(=O)N[C@@H](CCCCN)C(=O)N[C@@H](C)C(=O)N[C@@H](Cc1ccc(O)cc1)C(=O)N[C@@H](C)C(=O)N[C@@H](CCCNC(=N)N)C(=O)N[C@@H](CCCNC(=N)N)C(=O)NCC(=O)N[C@@H](CC(N)=O)C(=O)N[C@@H](CO)C(=O)N[C@@H](Cc1ccc(O)cc1)C(=O)N[C@@H](Cc1ccccc1)C(=O)N[C@@H](CCCCN)C(=O)O [Antp-I6R] (H-RQIKIWFQNRRMKWKKKAYARRGNSYFK-OH; N-terminus and C-terminus assumed) | 1.95 | 10.87 | effective but with a lower effect than the wild-type protein | 91.60 | 10.92 | 25.36 | – | –
2 | CC[C@H](C)[C@H](NC(=O)[C@H](CCCNC(=N)N)NC(=O)[C@H](C)NC(=O)[C@H](Cc1ccc(O)cc1)NC(=O)[C@H](C)NC(=O)[C@H](C)NC(=O)[C@H](CCCCN)NC(=O)[C@H](CCCCN)NC(=O)[C@H](Cc1c[nH]c2ccccc12)NC(=O)[C@H](CCCCN)NC(=O)[C@H](CCSC)NC(=O)[C@H](CCCNC(=N)N)NC(=O)[C@H](CCCNC(=N)N)NC(=O)[C@H](CC(N)=O)NC(=O)[C@H](CCC(N)=O)NC(=O)[C@H](Cc1ccccc1)NC(=O)[C@H](Cc1c[nH]c2ccccc12)NC(=O)[C@@H](NC(=O)[C@H](CCCCN)NC(=O)[C@@H](NC(=O)[C@H](CCC(N)=O)NC(=O)[C@@H](N)CCCNC(=N)N)[C@@H](C)CC)[C@@H](C)CC)C(=O)NCC(=O)N[C@@H](CC(N)=O)C(=O)N[C@@H](CO)C(=O)N[C@@H](Cc1ccc(O)cc1)C(=O)N[C@@H](Cc1ccccc1)C(=O)N[C@@H](CCCCN)C(=O)O [Antp-K1A] (H-RQIKIWFQNRRMKWKKAAYARIGNSYFK-OH; N-terminus and C-terminus assumed) | 20.29 | 13.04 | effective but with a lower effect than the wild-type protein | 93.55 | 8.41 | 24.84 | – | –
3 | CC[C@H](C)[C@H](NC(=O)[C@H](CCCNC(=N)N)NC(=O)[C@H](C)NC(=O)[C@H](Cc1ccc(O)cc1)NC(=O)[C@H](C)NC(=O)[C@H](CCCNC(=N)N)NC(=O)[C@H](CCCCN)NC(=O)[C@H](CCCCN)NC(=O)[C@H](Cc1c[nH]c2ccccc12)NC(=O)[C@H](CCCCN)NC(=O)[C@H](CCSC)NC(=O)[C@H](CCCNC(=N)N)NC(=O)[C@H](CCCNC(=N)N)NC(=O)[C@H](CC(N)=O)NC(=O)[C@H](CCC(N)=O)NC(=O)[C@H](Cc1ccccc1)NC(=O)[C@H](Cc1c[nH]c2ccccc12)NC(=O)[C@@H](NC(=O)[C@H](CCCCN)NC(=O)[C@@H](NC(=O)[C@H](CCC(N)=O)NC(=O)[C@@H](N)CCCNC(=N)N)[C@@H](C)CC)[C@@H](C)CC)C(=O)NCC(=O)N[C@@H](CC(N)=O)C(=O)N[C@@H](CO)C(=O)N[C@@H](Cc1ccc(O)cc1)C(=O)N[C@@H](Cc1ccccc1)C(=O)N[C@@H](CCCCN)C(=O)O [Antp-K1R] (H-RQIKIWFQNRRMKWKKRAYARIGNSYFK-OH; N-terminus and C-terminus assumed) | 35.81 | 15.70 | effective but with a lower effect than the wild-type protein | 91.39 | 11.22 | 25.43 | – | –
4 | CC[C@H](C)[C@H](NC(=O)[C@H](CCCNC(=N)N)NC(=O)[C@H](C)NC(=O)[C@H](Cc1ccc(O)cc1)NC(=O)[C@H](C)NC(=O)[C@H](CCCCN)NC(=O)[C@H](CCCCN)NC(=O)[C@H](CCCCN)NC(=O)[C@H](Cc1c[nH]c2ccccc12)NC(=O)[C@H](CCCCN)NC(=O)[C@H](CCSC)NC(=O)[C@H](CCCNC(=N)N)NC(=O)[C@H](CCCNC(=N)N)NC(=O)[C@H](CC(N)=O)NC(=O)[C@H](CCC(N)=O)NC(=O)[C@H](Cc1ccccc1)NC(=O)[C@H](Cc1c[nH]c2ccccc12)NC(=O)[C@@H](NC(=O)[C@H](CCCCN)NC(=O)[C@@H](NC(=O)[C@H](CCC(N)=O)NC(=O)[C@@H](N)CCCNC(=N)N)[C@@H](C)CC)[C@@H](C)CC)C(=O)NCC(=O)N[C@@H](CC(N)=O)C(=O)N[C@@H](CO)C(=O)N[C@@H](Cc1ccc(O)cc1)C(=O)N[C@@H](Cc1ccccc1)C(=O)N[C@@H](CCCNC(=N)N)C(=O)O [Antp-K12R] (H-RQIKIWFQNRRMKWKKKAYARIGNSYFR-OH; N-terminus and C-terminus assumed) | 90.20 | 54.95 | effect similar to that of the wild-type protein | 21.95 | 101.68 | 105.89 | increase in effect | –
5 | CC[C@H](C)[C@H](NC(=O)[C@H](CCCNC(=N)N)NC(=O)[C@H](C)NC(=O)[C@H](Cc1ccc(O)cc1)NC(=O)[C@H](C)NC(=O)[C@H](CCCCN)NC(=O)[C@H](CCCCN)NC(=O)[C@H](CCCCN)NC(=O)[C@H](Cc1c[nH]c2ccccc12)NC(=O)[C@H](CCCCN)NC(=O)[C@H](CCSC)NC(=O)[C@H](CCCNC(=N)N)NC(=O)[C@H](CCCNC(=N)N)NC(=O)[C@H](CC(N)=O)NC(=O)[C@H](CCC(N)=O)NC(=O)[C@H](Cc1ccccc1)NC(=O)[C@H](Cc1c[nH]c2ccccc12)NC(=O)[C@@H](NC(=O)[C@H](CCCCN)NC(=O)[C@@H](NC(=O)[C@H](CCC(N)=O)NC(=O)[C@@H](N)CCCNC(=N)N)[C@@H](C)CC)[C@@H](C)CC)C(=O)NCC(=O)N[C@@H](CCC(N)=O)C(=O)N[C@@H](CO)C(=O)N[C@@H](Cc1ccc(O)cc1)C(=O)N[C@@H](Cc1ccccc1)C(=O)N[C@@H](CCCCN)C(=O)O [Antp-N8Q] (H-RQIKIWFQNRRMKWKKKAYARIGQSYFK-OH; N-terminus and C-terminus assumed) | 98.57 | 89.35 | effect higher than the wild-type protein | 10.06 | 117.17 | 230.94 | increase in effect | –
6 | CC[C@H](C)[C@H](NC(=O)[C@H](CCCCN)NC(=O)[C@H](C)NC(=O)[C@H](Cc1ccc(O)cc1)NC(=O)[C@H](C)NC(=O)[C@H](CCCCN)NC(=O)[C@H](CCCCN)NC(=O)[C@H](CCCCN)NC(=O)[C@H](Cc1c[nH]c2ccccc12)NC(=O)[C@H](CCCCN)NC(=O)[C@H](CCSC)NC(=O)[C@H](CCCNC(=N)N)NC(=O)[C@H](CCCNC(=N)N)NC(=O)[C@H](CC(N)=O)NC(=O)[C@H](CCC(N)=O)NC(=O)[C@H](Cc1ccccc1)NC(=O)[C@H](Cc1c[nH]c2ccccc12)NC(=O)[C@@H](NC(=O)[C@H](CCCCN)NC(=O)[C@@H](NC(=O)[C@H](CCC(N)=O)NC(=O)[C@@H](N)CCCNC(=N)N)[C@@H](C)CC)[C@@H](C)CC)C(=O)NCC(=O)N[C@@H](CC(N)=O)C(=O)N[C@@H](CO)C(=O)N[C@@H](Cc1ccc(O)cc1)C(=O)N[C@@H](Cc1ccccc1)C(=O)N[C@@H](CCCCN)C(=O)O [Antp-R5K] (H-RQIKIWFQNRRMKWKKKAYAKIGNSYFK-OH; N-terminus and C-terminus assumed) | 6.58 | 11.34 | effective but with a lower effect than the wild-type protein | 92.57 | 9.68 | 25.10 | – | –
7 | CC[C@H](C)[C@H](NC(=O)[C@H](CCCNC(=N)N)NC(=O)[C@H](C)NC(=O)[C@H](Cc1ccc(O)cc1)NC(=O)[C@H](C)NC(=O)[C@H](CCCCN)NC(=O)[C@H](CCCCN)NC(=O)[C@H](CCCCN)NC(=O)[C@H](Cc1c[nH]c2ccccc12)NC(=O)[C@H](CCCCN)NC(=O)[C@H](CCSC)NC(=O)[C@H](CCCNC(=N)N)NC(=O)[C@H](CCCNC(=N)N)NC(=O)[C@H](CC(N)=O)NC(=O)[C@H](CCC(N)=O)NC(=O)[C@H](Cc1ccccc1)NC(=O)[C@H](Cc1c[nH]c2ccccc12)NC(=O)[C@@H](NC(=O)[C@H](CCCCN)NC(=O)[C@@H](NC(=O)[C@H](CCC(N)=O)NC(=O)[C@@H](N)CCCNC(=N)N)[C@@H](C)CC)[C@@H](C)CC)C(=O)NCC(=O)N[C@@H](CC(N)=O)C(=O)N[C@@H](Cc1ccc(O)cc1)C(=O)N[C@@H](Cc1ccc(O)cc1)C(=O)N[C@@H](Cc1ccccc1)C(=O)N[C@@H](CCCCN)C(=O)O [Antp-S9Y] (H-RQIKIWFQNRRMKWKKKAYARIGNYYFK-OH; N-terminus and C-terminus assumed) | 106.80 | 232.05 | effect higher than the wild-type protein | 12.73 | 113.69 | 182.60 | increase in effect | stronger than that of the wild-type peptide
